# In PMC4125160, “Neurotoxicity and Mode of Action of N, N-Diethyl-Meta-Toluamide (DEET)” (PLoS ONE, 2014):
# Key:
# [1] = system: A. gambiae (AKRON); assay: Topical toxicity bioassay on adult females; format: in vivo, Anopheles gambiae
# Description: (§1) Topical toxicity bioassays on adult female mosquitoes were performed based on the method of Pridgeon et al.. Briefly, insects were chilled on ice for 3 min, during which the appropriate volume (200 nL for mosquitoes, 1 µL for Musca) of chemical (dissolved in 95% ethanol) was applied onto the abdomen using a handheld Hamilton microapplicator. For each inhibitor, five doses were applied to groups of ten insects each and repeated three times. An ethanol-only treatment was included in each experiment as a negative control. Insects were transferred into a holding chamber post-treatment and supplied with free access to sugar water for the duration of the experiment. […] Three LD50 values were obtained and the mean LD50 value was calculated and used for statistical analysis.
# (§2) For all toxicity assays, control mortality was corrected for using Abbots formula [19]; where corrected percent mortality = (% alive in control–% alive in treated) /% alive in control.
# [2] = system: A. gambiae (G3); assay: Topical toxicity bioassay on adult females; format: in vivo, Anopheles gambiae; conditions: topical application, ng of compound/mg of mosquito weight, 24 hr
# Description: as §1, §2
# [3] = system: M. domestica; assay: Topical toxicity bioassay; format: in vivo, Musca domestica
# Description: as §1, §2
# [4] = system: Drosophila melanogaster; assay: Diet (sugar-feeding) toxicity assay; format: in vivo; conditions: 1 mg/ml, mortality at 24 h
# Description: Diet toxicity assays were performed on mixed sex adult Drosophila melanogaster fasted for 8 hours prior to initiating the experiment. Flies were transferred into a container stoppered with a cotton ball infused with 1 ml of a sucrose/DEET solution containing 20 insects (2–3 day old adults). The assay was run three times on three different days with matched controls. Mortality was recorded at the 24-hour time point.
# as §2
# [5] = system: acetylcholinesterase; assay: AChE inhibition, Ellman assay, summary statements across enzymes; format: biochemical; conditions: abstract
# Description: In vitro biochemical assays utilized five acetylcholinesterase (AChE) enzymes. Recombinant human AChE (hAChE) was purchased from a commercial source (lyophilized powder, Sigma C1682, St. Louis, MO, USA). Homogenates to prepare Anopheles gambiae AChE (AgAChE) were obtained from the wild type G3 strain and the resistant AKRON strain (BEI Resources; http://www.beiresources.org/). AKRON mosquitoes (from Benin and donated by M. Akogbeto) have both knockdown resistance (kdr) to pyrethroids (L1014F sodium channel mutation) and the G119S AChE mutation (ace-1R), which confers resistance to carbamates, [15]. Both strains were cultured in the Emerging Pathogens Institute, University of Florida, Gainesville, FL, USA from eggs provided by the Center for Disease Control, Atlanta, GA, USA. Homogenates were also used to prepare Aedes aegypti AChE (AeAChE) from mosquitoes provided by the CMAVE, USDA-ARS, Gainesville, FL, USA; Musca domestica AChE (MdAChE) from flies cultured in the Department of Entomology and Nematology, Medical Entomology Laboratory, University of Florida, Gainesville, FL, USA); and Drosophila melanogaster AChE (DmAChE) from flies (Oregon-R strain) cultured in the Emerging Pathogens Institute, University of Florida, Gainesville, FL, USA. Homogenate enzymes were prepared from groups of ten non-blood fed adult female mosquitoes, five whole bodied Drosophila, or three Musca heads homogenized in 1 mL of ice-cold sodium phosphate buffer (0.1 M sodium phosphate, pH 7.8) with an electric motor driven glass tissue homogenizer. The homogenate was centrifuged at 5000×g using a Sorvall Fresco refrigerated centrifuge at 4 °C for 5 minutes. […]
# Inhibition of AChE was determined using the Ellman assay and was based on the method outlined in Carlier et al.. […] Changes in absorbance were recorded by a DYNEX Triad spectrophotometer (DYNEX Technologies, Chantilly, VA, USA) at 405 nm. Enzyme concentrations used were within the linear range, therefore eliminating the need for protein quantification.
# [6] = system: potassium channels (Kv2 delayed rectifier) in neonatal rat cortical neurons; assay: Patch clamp of rat cortical neurons, potassium currents; format: cell-based
# Description: Rat cortical neurons (purchased from Lonza, Walkersville, MD, USA) were placed on poly-lysine coated glass cover slips in 35 mm dishes, and cultured in primary neuron basal medium with added 2% neural grown factor and 1% glutamine (from Lonza). The medium was half changed every 3 days, and the cells were used at 6–12 days. The neurons had dendrites and axons and the diameters of the somata were about 15–20 µm. Cells were cultured on cover slips and were immersed in 35 mm Petri dishes filled with room temperature extracellular saline. Patch pipettes were pulled from borosilicate glass capillaries with filament (BF150-86-10, Sutter Instrument, Novato CA, USA) on a P-1000 Flaming/Brown micropipette puller (Sutter Instrument). Extracellular solution was the same regardless of the target ion channel and contained: 140 mM NaCl, 5 mM KCl, 2 mM MgCl2, 2 mM CaCl2, 10 mM glucose, and 10 mM HEPES (pH = 7.4). Intracellular patch solution for potassium channel recordings consisted of: 140 mM KF, 10 mM NaCl, 2 mM MgCl2, and 10 mM HEPES (pH = 7.2). Intracellular patch solution for sodium channel recordings consisted of: 140 mM CsCH3SO3 10 mM NaCl, 2 mM MgCl2, 10 mM HEPES (pH = 7.2), where CsCH3SO3 was used to eliminate potassium currents during sodium channel analysis. The patch electrodes had resistances of 5–7 MOhms. […]
# [7] = system: DmAChE, human AChE and butyrylcholinesterase; set-up: method as in PMID 19656357; conditions: cited from earlier work
compound,measurement,setting,value
"CCN(CC)C(=O)c1cccc(C)c1 [DEET, N, N-diethyl-meta-toluamide]",LD50 (+PBO) (95% CI),[1]; topical application after 4 hr pretreatment with 200 ng PBO,1247 (872–1526)a ng/ml
same,LD50 (95% CI),"[1]; topical application, ng of compound/mg of mosquito weight, 24 hr",1472 (1136–1806)b ng/mg
same,LD50 (95% CI),[2],1175 (988–1361)a ng/mg
same,LD50 (95% CI),"[3]; topical application, 24 hr",8104 (7026–9000)c ng/mg
same,signs of intoxication,[3]; toxicologically equivalent doses,mostly lethargic with only occasional bouts of excitation
same,toxicity in sugar-feeding assay,[4],non-toxic
same,acetylcholinesterase inhibition,[5]; 10 mM,< 10%
same,IC50,"[5]; Drosophila melanogaster, Musca domestica, and human acetylcholinesterases",6 to 12 mM
same,control current amplitude restored by washout,[6],approximately 50%
same,concentrations showing inhibitory effects,[7],0.1 to 10 mM
